This is an account of results in ChEMBL document CHEMBL4387741, “Optimization of novel reversible Bruton's tyrosine kinase inhibitors identified using Tethering-fragment-based screens” (Bioorg Med Chem, 2019).

Assay [1] has as its target Ribosomal protein S6 kinase alpha-6 (Homo sapiens) (UniProt Q9UK32). Nature of the assay: Inhibition of wild-type human partial length C-terminal RSK4 kinase domain 2 (I401 to Y711 residues) expressed in bacterial expression system at 1 uM by Kinomescan method relative to control.
The target in assay [2] is Phosphatidylinositol 4,5-bisphosphate 3-kinase catalytic subunit gamma isoform (Homo sapiens) (UniProt P48736). Nature of the assay: Inhibition of wild-type human partial length PIK3CG (S144 to A1102 residues) expressed in mammalian expression system at 1 uM by Kinomescan method relative to control.
The target in assay [3] is Casein kinase I isoform gamma-3 (Homo sapiens) (UniProt Q9Y6M4). Nature of the assay: Inhibition of wild-type human full length CSNK1G3 (M1 to K447 residues) expressed in bacterial expression system at 1 uM by Kinomescan method relative to control.
Assay [4] concerns the target Casein kinase I isoform gamma-2 (Homo sapiens) (UniProt P78368). Nature of the assay: Inhibition of wild-type human full length CSNK1G2 (M1 to K415 residues) expressed in bacterial expression system at 1 uM by Kinomescan method relative to control.
Assay [5] concerns the target Protein kinase C iota type (Homo sapiens) (UniProt P41743). Nature of the assay: Inhibition of wild-type human partial length PRKCI (H215 to V587 residues) expressed in mammalian expression system at 1 uM by Kinomescan method relative to control.
Assay [6] deals with Serine/threonine-protein kinase TBK1 (Homo sapiens) (UniProt Q9UHD2). Nature of the assay: Inhibition of wild-type human full length TBK1 (M1 to L729 residues) expressed in mammalian expression system at 1 uM by Kinomescan method relative to control.
Assay [7] addresses Protein-tyrosine kinase 6 (Homo sapiens) (UniProt Q13882). Nature of the assay: Inhibition of wild-type human partial length BRK (L166 to T451 residues) expressed in bacterial expression system at 1 uM by Kinomescan method relative to control.
The target in assay [8] is Mitogen-activated protein kinase 13 (Homo sapiens) (UniProt O15264). Nature of the assay: Inhibition of wild-type human full length p38-delta (M1 to L365 residues) expressed in bacterial expression system at 1 uM by Kinomescan method relative to control.
Assay [9] has as its target Homeodomain-interacting protein kinase 2 (Homo sapiens) (UniProt Q9H2X6). Nature of the assay: Inhibition of wild-type human partial length HIPK2 (M153 to S564 residues) expressed in mammalian expression system at 1 uM by Kinomescan method relative to control.
The test system of assay [10] is Leucine-rich repeat serine/threonine-protein kinase 2 (Homo sapiens), Q5S007 [G2019S]. Description: Inhibition of human partial length LRRK2 G2019S mutant (H970 to E2527 residues) expressed in mammalian expression system at 1 uM by Kinomescan method relative to control.
The target of assay [11] is Calcium/calmodulin-dependent protein kinase type 1B (Homo sapiens) (UniProt Q6P2M8). Nature of the assay: Inhibition of wild-type human partial length CAMK1B (W9 to A311 residues) expressed in mammalian expression system at 10 uM by Kinomescan method relative to control.
Assay [12] concerns Tyrosine-protein kinase ABL1 (Homo sapiens), P00519 [Y253F]. Nature of the assay: Inhibition of human phosphorylated ABL1 Y253F mutant (S229 to K512 residues) expressed in mammalian expression system at 10 uM by Kinomescan method relative to control.
Assay [13] concerns the target Epithelial discoidin domain-containing receptor 1 (Homo sapiens) (UniProt Q08345). Nature of the assay: Inhibition of wild-type human partial length DDR1 (R565 to V876 residues) expressed in bacterial expression system at 10 uM by Kinomescan method relative to control.
The target of assay [14] is Aurora kinase A (Homo sapiens) (UniProt O14965). Description: Inhibition of wild-type human partial length AURKA (E122 to K401 residues) expressed in mammalian expression system at 10 uM by Kinomescan method relative to control.
Sequence of Aurora kinase A (Homo sapiens) (O14965 whole entry, the tested form may be a part): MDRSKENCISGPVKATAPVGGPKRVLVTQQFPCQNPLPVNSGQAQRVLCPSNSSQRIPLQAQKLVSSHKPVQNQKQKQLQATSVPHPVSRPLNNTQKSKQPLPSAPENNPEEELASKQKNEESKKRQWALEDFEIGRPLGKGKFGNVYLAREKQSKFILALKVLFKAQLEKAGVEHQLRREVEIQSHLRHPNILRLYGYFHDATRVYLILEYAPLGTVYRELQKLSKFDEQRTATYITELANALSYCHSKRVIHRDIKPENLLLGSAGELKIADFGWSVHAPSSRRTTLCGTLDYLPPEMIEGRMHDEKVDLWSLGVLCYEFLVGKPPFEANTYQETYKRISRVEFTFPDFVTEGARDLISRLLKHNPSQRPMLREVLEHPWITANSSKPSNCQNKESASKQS
In assay [15] the target is Protein kinase C eta type (Homo sapiens) (UniProt P24723). Nature of the assay: Inhibition of wild-type human partial length PRKCH (S324 to P683 residues) expressed in bacterial expression system at 10 uM by Kinomescan method relative to control.
The target in assay [16] is Calcium/calmodulin-dependent protein kinase type 1 (Homo sapiens) (UniProt Q14012). Description: Inhibition of wild-type human full length CAMK1 (M1 to L370 residues) expressed in bacterial expression system at 10 uM by Kinomescan method relative to control.
For assay [17], the system named is Epidermal growth factor receptor (Homo sapiens), P00533 [UNDEFINED MUTATION]. Description: Inhibition of human partial length EGFR S752-I759del mutant expressed in bacterial expression system at 10 uM by Kinomescan method relative to control.
Assay [18] has as its target Macrophage-stimulating protein receptor (Homo sapiens) (UniProt Q04912). Description: Inhibition of wild-type human partial length MST1R (I1057 to L1363 residues) expressed in bacterial expression system at 10 uM by Kinomescan method relative to control.
Assay [19] concerns Mast/stem cell growth factor receptor Kit (Homo sapiens), P10721 [D816V]. Description: Inhibition of human partial length KIT D816V mutant (I571 to D952 residues) expressed in bacterial expression system at 10 uM by Kinomescan method relative to control.
Assay [20] has as its target Casein kinase I isoform alpha-like (Homo sapiens) (UniProt Q8N752). Nature of the assay: Inhibition of wild-type human full length CSNK1A1L (M1 to N337 residues) expressed in bacterial expression system at 10 uM by Kinomescan method relative to control.
Assay [21] addresses RAF proto-oncogene serine/threonine-protein kinase (Homo sapiens) (UniProt P04049). Description: Inhibition of wild-type human partial length RAF1 (I330 to T640 residues) expressed in bacterial expression system at 10 uM by Kinomescan method relative to control.
Assay [22] deals with Glycogen synthase kinase-3 beta (Homo sapiens) (UniProt P49841). Description: Inhibition of wild-type human full length GSK3B (M1 to T433 residues) expressed in mammalian expression system at 10 uM by Kinomescan method relative to control.
For assay [23], the target named is Cyclin-dependent kinase 19 (Homo sapiens) (UniProt Q9BWU1). Description: Inhibition of wild-type human partial length CDK11 (M1 to N360 residues) expressed in bacterial expression system at 10 uM by Kinomescan method relative to control.
Sequence of Cyclin-dependent kinase 19 (Homo sapiens) (Q9BWU1 whole entry, the tested form may be a part): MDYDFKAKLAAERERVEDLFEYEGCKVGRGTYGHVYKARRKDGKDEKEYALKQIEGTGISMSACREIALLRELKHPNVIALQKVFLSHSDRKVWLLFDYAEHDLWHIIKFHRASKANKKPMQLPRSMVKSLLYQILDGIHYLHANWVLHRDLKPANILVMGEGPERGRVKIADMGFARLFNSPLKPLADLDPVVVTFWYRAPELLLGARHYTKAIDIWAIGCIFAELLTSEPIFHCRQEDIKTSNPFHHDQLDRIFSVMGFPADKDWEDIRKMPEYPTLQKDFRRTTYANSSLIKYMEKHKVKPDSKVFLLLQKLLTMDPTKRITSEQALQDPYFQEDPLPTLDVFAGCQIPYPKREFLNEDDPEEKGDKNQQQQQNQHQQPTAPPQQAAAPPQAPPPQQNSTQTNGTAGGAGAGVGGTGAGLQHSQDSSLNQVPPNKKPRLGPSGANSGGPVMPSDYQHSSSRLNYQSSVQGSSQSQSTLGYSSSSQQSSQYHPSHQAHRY
The target of assay [24] is Bone morphogenetic protein receptor type-2 (Homo sapiens) (UniProt Q13873). Description: Inhibition of wild-type human partial length BMPR2 (R179 to Q526 residues) expressed in mammalian expression system at 10 uM by Kinomescan method relative to control.
Sequence of Bone morphogenetic protein receptor type-2 (Homo sapiens) (Q13873 whole entry, the tested form may be a part): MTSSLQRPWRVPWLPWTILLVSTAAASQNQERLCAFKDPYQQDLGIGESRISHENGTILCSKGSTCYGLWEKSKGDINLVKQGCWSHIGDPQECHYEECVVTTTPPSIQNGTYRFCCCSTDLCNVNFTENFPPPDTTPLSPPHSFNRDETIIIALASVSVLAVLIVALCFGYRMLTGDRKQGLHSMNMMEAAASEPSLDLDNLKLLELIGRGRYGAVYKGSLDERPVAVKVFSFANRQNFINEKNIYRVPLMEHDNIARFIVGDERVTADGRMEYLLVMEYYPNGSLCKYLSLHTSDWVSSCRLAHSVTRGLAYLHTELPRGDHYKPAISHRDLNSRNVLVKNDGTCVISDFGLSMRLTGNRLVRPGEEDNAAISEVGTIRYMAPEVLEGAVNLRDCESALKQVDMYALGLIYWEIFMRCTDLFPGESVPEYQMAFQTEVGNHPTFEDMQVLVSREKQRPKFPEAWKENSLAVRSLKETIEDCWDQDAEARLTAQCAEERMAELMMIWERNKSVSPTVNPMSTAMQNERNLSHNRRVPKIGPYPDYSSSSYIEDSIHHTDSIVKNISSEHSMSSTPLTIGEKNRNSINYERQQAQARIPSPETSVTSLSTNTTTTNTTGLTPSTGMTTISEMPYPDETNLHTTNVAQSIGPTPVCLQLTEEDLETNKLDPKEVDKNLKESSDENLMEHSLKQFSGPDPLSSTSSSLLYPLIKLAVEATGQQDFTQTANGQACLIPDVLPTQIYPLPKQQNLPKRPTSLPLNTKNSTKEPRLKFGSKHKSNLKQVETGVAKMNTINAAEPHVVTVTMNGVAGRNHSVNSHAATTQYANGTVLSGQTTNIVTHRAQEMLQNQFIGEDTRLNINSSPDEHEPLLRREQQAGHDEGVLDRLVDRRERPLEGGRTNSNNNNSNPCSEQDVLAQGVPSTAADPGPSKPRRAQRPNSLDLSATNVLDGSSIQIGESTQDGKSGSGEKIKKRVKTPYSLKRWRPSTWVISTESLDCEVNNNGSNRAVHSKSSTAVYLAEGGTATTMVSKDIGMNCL
Assay [25] deals with Serine/threonine-protein kinase PLK4 (Homo sapiens) (UniProt O00444). Nature of the assay: Inhibition of wild-type human partial length PLK4 (M1 to S273 residues) expressed in mammalian expression system at 10 uM by Kinomescan method relative to control.
For assay [26], the target named is Receptor-interacting serine/threonine-protein kinase 1 (Homo sapiens) (UniProt Q13546). Description: Inhibition of wild-type human partial length RIPK1 (M1 to K305 residues) expressed in bacterial expression system at 10 uM by Kinomescan method relative to control.
Sequence of Receptor-interacting serine/threonine-protein kinase 1 (Homo sapiens) (Q13546 whole entry, the tested form may be a part): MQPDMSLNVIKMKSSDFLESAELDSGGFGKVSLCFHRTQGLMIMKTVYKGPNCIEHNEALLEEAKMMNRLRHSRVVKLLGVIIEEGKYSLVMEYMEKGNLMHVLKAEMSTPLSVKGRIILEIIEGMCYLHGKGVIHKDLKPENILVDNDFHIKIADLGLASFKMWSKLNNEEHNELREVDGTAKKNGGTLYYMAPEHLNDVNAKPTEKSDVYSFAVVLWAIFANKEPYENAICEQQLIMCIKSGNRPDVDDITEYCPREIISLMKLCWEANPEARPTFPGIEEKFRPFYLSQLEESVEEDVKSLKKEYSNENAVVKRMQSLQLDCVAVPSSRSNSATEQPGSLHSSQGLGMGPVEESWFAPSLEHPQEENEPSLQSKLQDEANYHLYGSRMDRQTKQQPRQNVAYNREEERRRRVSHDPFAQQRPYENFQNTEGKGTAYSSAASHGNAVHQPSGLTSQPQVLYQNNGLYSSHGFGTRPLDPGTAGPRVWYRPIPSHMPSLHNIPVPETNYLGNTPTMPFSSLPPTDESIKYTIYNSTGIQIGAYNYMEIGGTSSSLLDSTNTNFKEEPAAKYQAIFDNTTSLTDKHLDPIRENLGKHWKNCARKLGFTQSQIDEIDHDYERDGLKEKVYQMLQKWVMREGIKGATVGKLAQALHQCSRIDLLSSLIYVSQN
Assay [27] deals with Cyclin-dependent kinase 11A (Homo sapiens) (UniProt Q9UQ88). Description: Inhibition of wild-type human partial length CDC2L2 (D391 to K730 residues) expressed in bacterial expression system at 10 uM by Kinomescan method relative to control.
Sequence of Cyclin-dependent kinase 11A (Homo sapiens) (Q9UQ88 whole entry, the tested form may be a part): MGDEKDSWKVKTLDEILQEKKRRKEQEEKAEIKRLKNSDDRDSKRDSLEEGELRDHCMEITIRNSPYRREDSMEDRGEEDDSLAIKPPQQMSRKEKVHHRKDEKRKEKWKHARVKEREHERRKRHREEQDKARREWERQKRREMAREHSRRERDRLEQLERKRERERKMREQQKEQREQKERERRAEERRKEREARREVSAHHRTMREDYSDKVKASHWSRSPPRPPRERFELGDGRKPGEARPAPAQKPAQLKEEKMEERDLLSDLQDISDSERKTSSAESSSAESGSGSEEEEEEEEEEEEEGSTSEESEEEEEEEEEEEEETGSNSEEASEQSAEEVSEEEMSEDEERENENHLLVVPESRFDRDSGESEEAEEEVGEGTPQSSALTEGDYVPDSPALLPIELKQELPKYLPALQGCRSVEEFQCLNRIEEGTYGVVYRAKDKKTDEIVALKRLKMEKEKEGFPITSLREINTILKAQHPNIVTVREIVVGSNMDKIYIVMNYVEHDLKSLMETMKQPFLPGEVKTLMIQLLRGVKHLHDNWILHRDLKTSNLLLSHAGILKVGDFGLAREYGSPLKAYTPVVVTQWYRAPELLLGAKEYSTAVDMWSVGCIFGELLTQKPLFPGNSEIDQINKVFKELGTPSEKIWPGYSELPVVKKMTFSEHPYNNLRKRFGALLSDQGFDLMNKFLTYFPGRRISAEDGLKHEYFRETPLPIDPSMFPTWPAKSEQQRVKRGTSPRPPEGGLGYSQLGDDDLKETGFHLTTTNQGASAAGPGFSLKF

Sequence of Casein kinase I isoform alpha-like (Homo sapiens) (Q8N752 whole entry, the tested form may be a part, canonical isoform): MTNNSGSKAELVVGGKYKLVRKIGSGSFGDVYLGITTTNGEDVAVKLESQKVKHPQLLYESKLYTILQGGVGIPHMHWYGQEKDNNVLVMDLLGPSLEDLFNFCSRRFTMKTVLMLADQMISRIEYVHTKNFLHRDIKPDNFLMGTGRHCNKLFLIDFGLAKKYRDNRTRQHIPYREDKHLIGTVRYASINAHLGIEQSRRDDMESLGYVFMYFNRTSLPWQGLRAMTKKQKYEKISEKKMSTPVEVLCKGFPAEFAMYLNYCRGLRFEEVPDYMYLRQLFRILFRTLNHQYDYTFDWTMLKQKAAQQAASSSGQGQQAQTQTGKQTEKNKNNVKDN
Sequence of Homeodomain-interacting protein kinase 2 (Homo sapiens) (Q9H2X6 whole entry, looked up, the tested form may be a part): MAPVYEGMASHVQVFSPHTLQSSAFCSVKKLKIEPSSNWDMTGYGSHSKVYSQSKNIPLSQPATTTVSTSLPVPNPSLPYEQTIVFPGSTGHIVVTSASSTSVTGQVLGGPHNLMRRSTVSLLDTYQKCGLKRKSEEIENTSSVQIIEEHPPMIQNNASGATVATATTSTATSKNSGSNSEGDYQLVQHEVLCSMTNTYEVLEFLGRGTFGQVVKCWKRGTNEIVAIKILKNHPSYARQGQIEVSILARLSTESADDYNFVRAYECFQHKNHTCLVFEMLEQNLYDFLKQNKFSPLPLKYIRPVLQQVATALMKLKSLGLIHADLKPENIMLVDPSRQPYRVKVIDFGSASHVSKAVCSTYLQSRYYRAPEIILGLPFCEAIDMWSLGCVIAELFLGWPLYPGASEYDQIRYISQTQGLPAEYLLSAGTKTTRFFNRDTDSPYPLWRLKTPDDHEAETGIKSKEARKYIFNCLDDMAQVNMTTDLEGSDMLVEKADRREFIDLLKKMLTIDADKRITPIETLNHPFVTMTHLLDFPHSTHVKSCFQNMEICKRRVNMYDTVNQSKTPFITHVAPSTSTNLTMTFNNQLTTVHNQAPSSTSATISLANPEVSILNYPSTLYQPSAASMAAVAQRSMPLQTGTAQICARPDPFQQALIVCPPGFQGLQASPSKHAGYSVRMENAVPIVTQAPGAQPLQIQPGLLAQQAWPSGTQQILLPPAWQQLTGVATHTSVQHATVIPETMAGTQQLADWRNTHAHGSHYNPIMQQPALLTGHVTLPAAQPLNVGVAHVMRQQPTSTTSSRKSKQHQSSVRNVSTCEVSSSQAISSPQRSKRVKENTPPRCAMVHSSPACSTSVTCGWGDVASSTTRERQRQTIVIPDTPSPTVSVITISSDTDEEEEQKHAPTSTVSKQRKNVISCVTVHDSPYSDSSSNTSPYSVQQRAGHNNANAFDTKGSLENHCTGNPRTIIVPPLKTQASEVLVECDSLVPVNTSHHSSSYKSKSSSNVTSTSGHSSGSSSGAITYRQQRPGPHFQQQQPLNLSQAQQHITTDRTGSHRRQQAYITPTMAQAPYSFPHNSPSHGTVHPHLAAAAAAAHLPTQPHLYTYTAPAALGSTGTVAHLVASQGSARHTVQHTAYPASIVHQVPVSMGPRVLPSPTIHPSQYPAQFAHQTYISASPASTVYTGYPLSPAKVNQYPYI

For orientation: inhibition means the share of the control response that was lost under treatment. With `O=C(Nc1cccc([C@@H]2CN(c3ncnc4[nH]ccc34)CCN2CCO)c1)Nc1c(F)cccc1N1CCCC1`, the inhibition came to 88% in assay [1]; 84% in [2]; 94% in assay [3]; 100% in assay [4]; 54% in assay [5]; 81% in assay [6]. For the same compound, the inhibition in assay [7] is 99%; in assay [8], 100%; in assay [9] it was 100%; in assay [10] it was 100%.
For `O=C(Nc1cccc([C@H]2CCCN(c3ncnc4[nH]ccc34)C2)c1)Nc1ccccc1N1CCCC1`, the inhibition in assay [11] is 46%; in assay [12], 74%; in [13] it was 3.5%; in [14], 0.8%; in assay [15], 71%; in assay [16] it was 24%. The inhibition came out at 78% in [17]; 100% in assay [18]; 0.9% in assay [19]; 100% in assay [20]; 86% in [21]; 77% in [22]. The inhibition in assay [23] was 37%; in assay [24], 51%; in assay [25], 4.9%; in [26] it was 100%; in assay [27], 49%.
